Literature values in patent publication US20130172299A1, “Combination Therapy for Treatment of Bone and Mineral Disorders for Patients with Impaired Renal Function” (priority 2008, published 2013).

Legend:
[1] = hemodialysis patients

Compound | inflammation in ESRD (300 mg po qd for 14 days) | serious adverse events (300 mg po qd, 15 patients treated for 14 days) | LDL cholesterol [1] | serum HDL cholesterol [1] | serum calcium levels [1] | serum phosphorous levels [1]
Cc1c(O)cc2c(c1C)O[C@](C)(CCC[C@H](C)CCC[C@H](C)CCCC(C)C)CC2 [Gamma tocopherol] | efficacy in reducing inflammation | no serious adverse events were reported |  |  |  | 
NC(=O)c1cccnc1 [nicotinamide] |  |  | decreased | increased | did not change | significantly reduced
